For this experiment, the system named is ANRU TIL. Description: Viability of pre-treated ANRU TIL after H2O2 exposure (flow cytometry). The class given is cell-based, human. As to conditions: 24 h co-culture with ANRU tumour cells, alive CD3+ T cells. As for the experimental part: Lymphocytes were pre-treated for 18 h with Auranofin (AUF, with the concentration 1 μg/mL for NK cells and 0.5 μg/mL for TIL, if not indicated differently), DL-Sulforaphane (SUL) or Dimethyl Fumarate (DMF) (all Sigma-Aldrich) at indicated concentrations.
For Nrf2 inhibition, NK cells were treated with 50 μM ML-385 (Sigma-Aldrich) in parallel. For H2O2 treatment, lymphocyte cells were washed and resuspended to 1×10^6 cells/mL in medium and exposed to indicated H2O2 (Sigma-Aldrich) concentration for 1 h at 37° C. Cells were washed with medium and then used for further experiments. For monocyte experiments, autologous NK cell-monocytes or TIL-monocytes were used. NK cells/TIL were isolated and pre-treated with 0.5 μg/mL AUF, as described above, and co-cultured with unstimulated at the ratio, 1:2 M:NK, or stimulated monocytes at the ratio, 1:1 M:NK, if not indicated otherwise. Stimulated monocytes were activated with 100 ng/ml PMA for 1 min, washed and added at indicated ratio, the number of NK cell/TIL was kept constant. As control, H2O2 was used at indicated concentration. […]
All antibodies (see Table 1) and FACS reagents were used according to manufactures recommendation, if not stated otherwise. […] Samples were fixed with 2% PFA (Thermo scientific) for 15 min before acquired on a NovoCyte (ACEA Biosciences) and analysed using FlowJo Software (TreeStar).
(Flow cytometry measures light scatter and fluorescence of single cells or particles in a stream.)

As to `CC(=O)OC[C@H]1O[C@@H]([S-])[C@H](OC(C)=O)[C@@H](OC(C)=O)[C@@H]1OC(C)=O.CCP(CC)CC.[Au+]` [AUF, Auranofin], the “Viability of ANRU TIL after exposure to H2O2” value is reported as “improved viability”.

These data come from patent publication US20240277767A1, “METHODS AND USES” (PROLEUKOCYTE AB, priority 2021, published 2024).
